Consider 30 molecules from US20100137313A1 (ASTRAZENECA AB, priority 2008, published 2010).

Chain of S. pneumoniae Topoisomerase IV ATPase (ParE) (Q59961 whole entry): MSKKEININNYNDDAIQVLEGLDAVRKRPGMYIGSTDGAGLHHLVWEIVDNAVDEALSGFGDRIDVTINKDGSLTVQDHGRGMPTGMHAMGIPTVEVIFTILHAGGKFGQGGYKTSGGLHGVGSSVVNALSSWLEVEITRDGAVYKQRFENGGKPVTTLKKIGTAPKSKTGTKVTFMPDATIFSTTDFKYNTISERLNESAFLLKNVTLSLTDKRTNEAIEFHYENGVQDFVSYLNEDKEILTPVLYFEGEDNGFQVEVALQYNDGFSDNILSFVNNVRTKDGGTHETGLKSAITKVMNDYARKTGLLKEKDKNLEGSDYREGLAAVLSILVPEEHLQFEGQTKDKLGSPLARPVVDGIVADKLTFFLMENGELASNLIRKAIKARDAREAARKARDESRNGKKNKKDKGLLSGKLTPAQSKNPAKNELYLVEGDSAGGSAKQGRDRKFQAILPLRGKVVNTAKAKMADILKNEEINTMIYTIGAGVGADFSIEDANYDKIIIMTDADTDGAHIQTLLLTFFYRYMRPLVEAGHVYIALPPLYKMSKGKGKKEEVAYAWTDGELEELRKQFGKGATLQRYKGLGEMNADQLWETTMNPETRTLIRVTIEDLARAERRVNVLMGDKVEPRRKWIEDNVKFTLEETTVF

This test deals with S. pneumoniae Topoisomerase IV ATPase (ParE) (Streptococcus pneumoniae serotype 4, UniProt Q59961). In words: S. pneumoniae Topoisomerase IV ATPase inhibition. The test is classed as biochemical. Particulars: values marked * are an average of two or more data points, read-out: % Inh (13 μM) of S. pneumoniae Topoisomerase IV ATPase. In short, it runs like this:
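Phosphate-release ATPase assay: 1.25 nM ParE, 160 μM ATP, DNA-stimulated. Quench with malachite green/molybdate in 1 M HCl, read 650 nm; IC50 from 10-point dose series.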
As for `O=C(O)/C=C/c1cccc(-c2cnc(Nc3ccc(F)c(Cl)c3)nc2N2CCCCC2)c1` [Example 297, (E)-3-(3-(2-(3-chloro-4-fluorophenylamino)-4-(piperidin-1-yl)pyrimidin-5-yl)phenyl)acrylic acid], the inhibition at 13 µM was determined as 128%.

As to `Cn1cc(CNc2nc(Nc3ccc(F)c(Cl)c3)ncc2-c2cccc(/C=C/C(=O)O)c2)cn1` [Example 298, (E)-3-(3-(2-(3-chloro-4-fluorophenylamino)-4-((1-methyl-1H-pyrazol-4-yl)methylamino)pyrimidin-5-yl)phenyl)acrylic acid], the inhibition at 13 µM is 80.7%.

Take `COCC(COC)Nc1nc(Nc2ccc(F)c(Cl)c2)ncc1-c1cccc(/C=C/C(=O)O)c1` [Example 299]: the inhibition at 13 µM was 98.7%.

For the molecule `COCCN1CCN(c2nc(Nc3ccc(F)c(Cl)c3)ncc2-c2cccc(/C=C/C(=O)O)c2)CC1` [Example 300, (E)-3-(3-(2-(3-chloro-4-fluorophenylamino)-4-(4-(2-methoxyethyl)piperazin-1-yl)pyrimidin-5-yl)phenyl)acrylic acid], the inhibition at 13 µM is 82.3%.

`CN1CCN(c2nc(Nc3ccc(F)c(Cl)c3)ncc2-c2cccc(/C=C/C(=O)O)c2)CC1` [Example 301, (E)-3-(3-(2-(3-chloro-4-fluorophenylamino)-4-(4-methylpierazin-1-yl)pyrimidin-5-yl)phenyl)acrylic acid]: the inhibition at 13 µM came to 72.2%.

On to `CS(=O)(=O)N1CCN(c2nc(Nc3ccc(F)c(Cl)c3)ncc2-c2cccc(/C=C/C(=O)O)c2)CC1` [Example 302, (E)-3-(3-(2-(3-chloro-4-fluorophenylamino)-4-(4-(methylsulfonyl)piperazin-1-yl)pyrimidin-5-yl)phenyl)acrylic acid], for which the inhibition at 13 µM was 83%.

For `COCCn1cc(C(=O)O)c(=O)c2cc(-c3cnc(Nc4ccc(F)c(Cl)c4)nc3N3CCOCC3)ccc21` [Example 303, 6-(2-(3-chloro-4-fluorophenylamino)-4-morpholinopyrimidin-5-yl)-1-(2-methoxyethyl)-4-oxo-1,4-dihydroquinone-3-carboxylic acid], the inhibition at 13 µM came to 82%.

With `COCCCNc1nc(Nc2ccc(F)c(Cl)c2)ncc1-c1ccc2c(c1)c(=O)c(C(=O)O)cn2CCOC` [Example 304, 6-(2-(3-chloro-4-fluorophenylamino)-4-(3-methoxypropylamino)-pyrimidin-5-yl)-1-(2-methoxyethyl)-4-oxo-1,4-dihydroquinoline-3-carboxylic acid], the inhibition at 13 µM came out at 55.8%.

Turning to `COCCCNc1nc(Nc2ccc(F)c(Cl)c2)ncc1-c1ccc2ncc(C(=O)O)cc2c1` [Example 305, 6-(2-(3-chloro-4-fluorophenylamino)-4-(3-methoxypropylamino)-pyrimidin-5-yl)quinoline-3-carboxylic acid], the inhibition at 13 µM worked out at 89.2%.

On to `O=C(O)c1cc2cc(-c3cnc(Nc4ccc(F)c(Cl)c4)nc3N3CCOCC3)ccc2s1` [Example 306, 5-(2-(3-chloro-4-fluorophenylamino)-4-morpholinopyrimidin-5-yl)benzo[b]thiophene-2-carboxylic acid], for which the inhibition at 13 µM came to 84.8%.

For `COCCCNc1nc(Nc2ccc(F)c(Cl)c2)ncc1-c1ccc2sc(C(=O)O)cc2c1` [Example 307, 5-(2-(3-choloro-4-fluorophenylamino)-4-(3-methoxypropylamino)-pyrimidin-5-yl)benzo[b]thiophene-2-carboxylic acid], the inhibition at 13 µM came to 80.6%.

For the molecule `O=C(O)c1cncc(-c2cnc(Nc3ccc(F)c(Cl)c3)nc2-n2cc(-c3ccncc3)cn2)c1` [Example 308, 5-{2-[(3-chloro-4-fluorophenyl)amino]-4-[4-(pyridin-4-yl)-1H-pyrazol-1-yl]pyrimidin-5-yl}pyridine-3-carboxylic acid], the inhibition at 13 µM turned out to be 101%.

Take `O=C(O)c1cncc(-c2cnc(Nc3ccc(F)c(Cl)c3)nc2-n2cc(Cl)cn2)c1` [Example 309, 5-{2-[(3-chloro-4-fluorophenyl)amino]-4-(4-chloro-1H-pyrazol-1-yl)pyrimidin-5-yl}pyridine-3-carboxylic acid]: the inhibition at 13 µM is 69.4%.

On to `Cc1nccn1-c1nc(Nc2ccc(F)c(Cl)c2)ncc1-c1cncc(C(=O)O)c1` [Example 310, 5-{2-[(3-chloro-4-fluorophenyl)amino]-4-(2-methyl-1H-imidazol-1-yl)pyrimidin-5-yl}pyridine-3-carboxylic acid], for which the inhibition at 13 µM was 80%.

In the case of `O=C(O)c1cncc(-c2cnc(Nc3ccc(F)c(Cl)c3)nc2-n2cccc2)c1` [Example 311, 5-{2-[(3-chloro-4-fluorophenyl)amino]-4-(1H-pyrrol-1-yl)pyrimidin-5-yl}pyridine-3-carboxylic acid], the inhibition at 13 µM came out at 81.8%.

In the case of `O=C(O)/C=C/c1cccc(-c2cnc(Nc3ccc(F)c(Cl)c3)nc2-n2cc(-c3ccncc3)cn2)c1` [Example 312, (2E)-3-(3-{2-[(3-chloro-4-fluorophenyl)amino]-4-[4-(pyridin-4-yl)-1H-pyrazol-1-yl]pyrimidin-5-yl}phenyl)prop-2-enoic acid], the inhibition at 13 µM worked out at 101%.

As to `O=C(O)/C=C/c1cccc(-c2cnc(Nc3ccc(F)c(Cl)c3)nc2-n2cc(Cl)cn2)c1` [Example 313, (2E)-3-(3-{2-[(3-chloro-4-fluorophenyl)amino]-4-(4-chloro-1H-pyrazol-1-yl)pyrimidin-5-yl}phenyl)prop-2-enoic acid], the inhibition at 13 µM amounted to 80.3%.

For `Cc1nccn1-c1nc(Nc2ccc(F)c(Cl)c2)ncc1-c1cccc(/C=C/C(=O)O)c1` [Example 314, (2E)-3-(3-{2-[(3-chloro-4-fluorophenyl)amino]-4-(2-methyl-1H-imidazol-1-yl)pyrimidin-5-yl}phenyl)prop-2-enoic acid], the inhibition at 13 µM worked out at 83.4%.

On to `O=C(O)/C=C/c1cccc(-c2cnc(Nc3ccc(F)c(Cl)c3)nc2-n2cccc2)c1` [Example 315, (2E)-3-(3-{2-[(3-chloro-4-fluorophenyl)amino]-4-(1H-pyrrol-1-yl)pyrimidin-5-yl}phenyl)prop-2-enoic acid], for which the inhibition at 13 µM worked out at 62.8%.

With `Cc1cc(C)n(-c2nc(Nc3ccc(F)c(Cl)c3)ncc2-c2cncc(C(=O)O)c2)n1` [Example 316, 5-{2-[(3-chloro-4-fluorophenyl)amino]-4-(3,5-dimethyl-1H-pyrazol-1-yl)pyrimidin-5-yl}pyridine-3-carboxylic acid], the inhibition at 13 µM was found to be 80%.

For `O=C(O)c1cncc(-c2cnc(Nc3ccc(F)c(Cl)c3)nc2-n2nccn2)c1` [Example 317, 5-{4-(2H-1,2,3-triazol-2-yl)-2-[(3-chloro-4-fluorophenyl)amino]pyrimidin-5-yl}pyridine-3-carboxylic acid], the inhibition at 13 µM was found to be 84.9%.

Consider `O=C(O)c1cncc(-c2cnc(Nc3ccc(F)c(Cl)c3)nc2-n2nnc3ccccc32)c1` [Example 318, 5-{4-(1H-benzotriazol-1-yl)-2-[(3-chloro-4-fluorophenyl)amino]pyrimidin-5-yl}pyridine-3-carboxylic acid], for which the inhibition at 13 µM stood at 92.3%.

For `Cc1cc(C(F)(F)F)nn1-c1nc(Nc2ccc(F)c(Cl)c2)ncc1-c1cncc(C(=O)O)c1` [Example 319, 5-{2-[(3-chloro-4-fluorophenyl)amino]-4-[5-methyl-3-(trifluoromethyl)-1H-pyrazol-1-yl]pyrimidin-5-yl}pyridine-3-carboxylic acid], the inhibition at 13 µM was determined as 90.6%.

Regarding `O=C(O)c1cncc(-c2cnc(Nc3ccc(F)c(Cl)c3)nc2-n2ccc(C(F)(F)F)n2)c1` [Example 320, 5-{2-[(3-chloro-4-fluorophenyl)amino]-4-[3-(trifluoromethyl)-1H-pyrazol-1-yl]pyrimidin-5-yl}pyridine-3-carboxylic acid], the inhibition at 13 µM is 101%.

Consider `Cc1cc(C)n(-c2nc(Nc3ccc(F)c(Cl)c3)ncc2-c2cccc(/C=C/C(=O)O)c2)n1` [Example 321, (2E)-3-(3-{2-[(3-chloro-4-fluorophenyl)amino]-4-(3,5-dimethyl-1H-pyrazol-1-yl)pyrimidin-5-yl}phenyl)prop-2-enoic acid], for which the inhibition at 13 µM came out at 83.7%.

In the case of `Cc1cc(C(F)(F)F)nn1-c1nc(Nc2ccc(F)c(Cl)c2)ncc1-c1cccc(/C=C/C(=O)O)c1` [Example 322, (2E)-3-(3-{2-[(3-chloro-4-fluorophenyl)amino]-4-[5-methyl-3-(trifluoromethyl)-1H-pyrazol-1-yl]pyrimidin-5-yl}phenyl)prop-2-enoic acid], the inhibition at 13 µM was 75%.

As to `O=C(O)/C=C/c1cccc(-c2cnc(Nc3ccc(F)c(Cl)c3)nc2-n2ccc(C(F)(F)F)n2)c1` [Example 323, (2E)-3-(3-{2-[(3-chloro-4-fluorophenyl)amino]-4-[3-(trifluoromethyl)-1H-pyrazol-1-yl]pyrimidin-5-yl}phenyl)prop-2-enoic acid], the inhibition at 13 µM is 99.5%.

In the case of `O=C(O)/C=C/c1cccc(-c2cnc(Nc3ccc(F)c(Cl)c3)nc2-n2nccn2)c1` [Example 324, (2E)-3-(3-{2-[(3-chloro-4-fluorophenyl)amino]-4-(2H-1,2,3-triazol-2-yl)pyrimidin-5-yl}phenyl)prop-2-enoic acid], the inhibition at 13 µM was found to be 76.9%.

For the molecule `O=C(O)/C=C/c1cccc(-c2cnc(Nc3ccc(F)c(Cl)c3)nc2-n2nnc3ccccc32)c1` [Example 325, (2E)-3-(3-{4-(1H-benzotriazol-1-yl)-2-[(3-chloro-4-fluorophenyl)amino]pyrimidin-5-yl}phenyl) prop-2-enoic acid], the inhibition at 13 µM came to 102%.

Take `O=C(O)c1cncc(-c2cnc(Nc3ccc(F)c(Cl)c3)nc2-n2cnc(Cl)c2Cl)c1` [Example 327, 5-{2-[(3-chloro-4-fluorophenyl)amino]-4-(4,5-dichloro-1H-imidazol-1-yl)pyrimidin-5-yl}pyridine-3-carboxylic acid]: the inhibition at 13 µM stood at 99%.
